Experiments:
HIV-IIIb = experiment: Test A: Antiviral Assay in MT4 Cells; format: cell-based, HIV-1; settings: Human immunodeficiency virus 1, IIIB, MT4, 120 h, read-out: % inhibition at 3 μM
Experimental: Test A: Antiviral Assay in MT4 Cells
For the antiviral assay, 40 μL of 1× test concentration of 3-fold serially diluted compound in culture medium with 10% FBS was added to each well of a 384-well plate (10 concentrations) in quadruplicate. MT-4 cells were next mixed with HIV-IIIb at an m.o.i of 0.003 for 1 hour, after which time 35 μL of virus/cell mixture (2000 cells) was immediately added to each well containing 40 μL of diluted compound. The plates were then incubated at 37° C. for 5 days. After 5 days of incubation, 25 μl of 2× concentrated CellTiter-Glo™ Reagent (catalog #G7571, Promega Biosciences, Inc., Madison, Wis.) was added to each well containing MT-4 cells. Cell lysis was carried out by incubating at room temperature for 10 min and then chemiluminescence was read.

[1] = Test B: Cytotoxicity Assay (protocol of Test A, uninfected cells); format: cell-based; settings: human, uninfected MT-4 cells, CellTiter-Glo
Experimental: Test B: Cytotoxicity Assay Compound cytotoxicity and the corresponding CC50 values was determined using the same protocol as described in the antiviral assay (Test A) except that uninfected cells were used.

| Structure (SMILES) | inhibition at 3 µM (HIV-IIIb) [%] | CC50 at 5 days [1] [µM] |
| --- | --- | --- |
| CC(=O)Nc1cc(-c2ccc(Cl)c3c(NS(C)(=O)=O)nn(C)c23)c([C@H](Cc2cc(F)cc(F)c2)NC(=O)Cn2nc(C(F)F)c3c2C(F)(F)[C@@H]2C[C@H]32)nc1C [Compound 48, N—((S)-1-(5-acetamido-3-(4-chloro-1-methyl-3-(methylsulfonamido)-1H-indazol-7-yl)-6-methylpyridin-2-yl)-2-(3,5-difluorophenyl)ethyl)-2-((3bS,4aR)-3-(difluoromethyl)-5,5-difluoro-3b,4,4a,5-tetrahydro-1H-cyclopropa[3,4]cyclopenta[1,2-c]pyrazol-1-yl)acetamide] | 93 | 20.7 |
| Cn1nc(NS(C)(=O)=O)c2cccc(-c3nc(N)cnc3C(Cc3cc(F)cc(F)c3)NC(=O)Cn3nc(C(F)F)c4c3C(F)(F)[C@@H]3C[C@H]43)c21 (stereo partly drawn) [Compound 61, N-(1-(5-amino-3-(1-methyl-3-(methylsulfonamido)-1H-indazol-7-yl)pyrazin-2-yl)-2-(3,5-difluorophenyl)ethyl)-2-((3bS,4aR)-3-(difluoromethyl)-5,5-difluoro-3b,4,4a,5-tetrahydro-1H-cyclopropa[3,4]cyclopenta[1,2-c]pyrazol-1-yl)acetamide] | 75 | > 53.2 |
| Cn1nc(NS(C)(=O)=O)c2c(Cl)ccc(-c3nc(N)cnc3C(Cc3cc(F)cc(F)c3)NC(=O)Cn3nc(C(F)F)c4c3C(F)(F)[C@@H]3C[C@H]43)c21 (stereo partly drawn) [Compound 59D, N-(1-(5-amino-3-(4-chloro-1-methyl-3-(methylsulfonamido)-1H-indazol-7-yl)pyrazin-2-yl)-2-(3,5-difluorophenyl)ethyl)-2-((3bS,4aR)-3-(difluoromethyl)-5,5-difluoro-3b,4,4a,5-tetrahydro-1H-cyclopropa[3,4]cyclopenta[1,2-c]pyrazol-1-yl)acetamide] | 85 | > 46.8 |
| CN(CCO)c1ccc(-c2ccc(Cl)c3c(NS(C)(=O)=O)nn(C)c23)c([C@H](Cc2cc(F)cc(F)c2)NC(=O)Cn2nc(C(F)(F)F)c3c2C(F)(F)[C@@H]2C[C@H]32)n1 [Compound 58, N—((S)-1-(3-(4-chloro-1-methyl-3-(methylsulfonamido)-1H-indazol-7-yl)-6-((2-hydroxyethyl)(methyl)amino)pyridin-2-yl)-2-(3,5-difluorophenyl)ethyl)-2-((3bS,4aR)-5,5-difluoro-3-(trifluoromethyl)-3b,4,4a,5-tetrahydro-1H-cyclopropa[3,4]cyclopenta[1,2-c]pyrazol-1-yl)acetamide] | 86 | 12.8 |
| Cc1c(-c2cc(NC(=O)C(F)(F)F)cnc2[C@H](Cc2cc(F)cc(F)c2)NC(=O)Cn2nc(C(F)(F)F)c3c2C(F)(F)[C@@H]2C[C@H]32)ccc2n[nH]c(=O)n12 [Compound 40, N-(6-((S)-1-(2-((3bS,4aR)-5,5-difluoro-3-(trifluoromethyl)-3b,4,4a,5-tetrahydro-1H-cyclopropa[3,4]cyclopenta[1,2-c]pyrazol-1-yl)acetamido)-2-(3,5-difluorophenyl)ethyl)-5-(5-methyl-3-oxo-2,3-dihydro-[1,2,4]triazolo[4,3-a]pyridin-6-yl)pyridin-3-yl)-2,2,2-trifluoroacetamide] | 96 | 24.1 |
| Cn1nc(NS(C)(=O)=O)c2c(Cl)ccc(-c3cc(N)cnc3[C@H](Cc3cc(F)cc(F)c3)NC(=O)Cn3nc(C(F)F)c4c3C(F)(F)[C@@H]3C[C@H]43)c21 [Compound 49C, N—((S)-1-(5-amino-3-(4-chloro-1-methyl-3-(methylsulfonamido)-1H-indazol-7-yl)pyridin-2-yl)-2-(3,5-difluorophenyl)ethyl)-2-((3bS,4aR)-3-(difluoromethyl)-5,5-difluoro-3b,4,4a,5-tetrahydro-1H-cyclopropa[3,4]cyclopenta[1,2-c]pyrazol-1-yl)acetamide] | 93 | 28.1 |
| CNc1cnc([C@H](Cc2cc(F)cc(F)c2)NC(=O)Cn2nc(C(F)F)c3c2C(F)(F)[C@@H]2C[C@H]32)c(-c2ccc(Cl)c3c(NS(C)(=O)=O)nn(C)c23)c1 [Compound 51, N—((S)-1-(3-(4-chloro-1-methyl-3-(methylsulfonamido)-1H-indazol-7-yl)-5-(methylamino)pyridin-2-yl)-2-(3,5-difluorophenyl)ethyl)-2-((3bS,4aR)-3-(difluoromethyl)-5,5-difluoro-3b,4,4a,5-tetrahydro-1H-cyclopropa[3,4]cyclopenta[1,2-c]pyrazol-1-yl)acetamide] | 79 | 16.6 |
| NC(=O)c1cc(-c2cc(N3C(=O)c4ccccc4C3=O)cnc2[C@H](Cc2cc(F)cc(F)c2)NC(=O)Cn2nc(C(F)(F)F)c3c2C(F)(F)[C@@H]2C[C@H]32)ccc1F [Compound 30K, 5-(2-((S)-1-(2-((3bS,4aR)-5,5-difluoro-3-(trifluoromethyl)-3b,4,4a,5-tetrahydro-1H-cyclopropa[3,4]cyclopenta[1,2-c]pyrazol-1-yl)acetamido)-2-(3,5-difluorophenyl)ethyl)-5-(1,3-dioxoisoindolin-2-yl)pyridin-3-yl)-2-fluorobenzamide] | 48 | > 53.2 |
| Cn1nc(NS(C)(=O)=O)c2cccc(-c3cnc(N4CC5(COC5)C4)nc3[C@H](Cc3cc(F)cc(F)c3)NC(=O)Cn3nc(C(F)(F)F)c4c3C(F)(F)[C@@H]3C[C@H]43)c21 [Compound 37, 2-((3bS,4aR)-5,5-difluoro-3-(trifluoromethyl)-3b,4,4a,5-tetrahydro-1H-cyclopropa[3,4]cyclopenta[1,2-c]pyrazol-1-yl)-N—((S)-2-(3,5-difluorophenyl)-1-(5-(1-methyl-3-(methylsulfonamido)-1H-indazol-7-yl)-2-(2-oxa-6-azaspiro[3.3]heptan-6-yl)pyrimidin-4-yl)ethyl)acetamide] | 95 | 34 |
| Cn1nc(NS(C)(=O)=O)c2cccc(-c3cnc(N4CC(C)(O)C4)nc3[C@H](Cc3cc(F)cc(F)c3)NC(=O)Cn3nc(C(F)(F)F)c4c3C(F)(F)[C@@H]3C[C@H]43)c21 [Compound 36C, 2-((3bS,4aR)-5,5-difluoro-3-(trifluoromethyl)-3b,4,4a,5-tetrahydro-1H-cyclopropa[3,4]cyclopenta[1,2-c]pyrazol-1-yl)-N—((S)-2-(3,5-difluorophenyl)-1-(2-(3-hydroxy-3-methylazetidin-1-yl)-5-(1-methyl-3-(methylsulfonamido)-1H-indazol-7-yl)pyrimidin-4-yl)ethyl)acetamide] | 94 | 32.2 |
| NC(=O)c1cc(-c2cc(N)cnc2[C@H](Cc2cc(F)cc(F)c2)NC(=O)Cn2nc(C(F)(F)F)c3c2C(F)(F)[C@@H]2C[C@H]32)ccc1F [Compound 31, 5-(5-amino-2-((S)-1-(2-((3bS,4aR)-5,5-difluoro-3-(trifluoromethyl)-3b,4,4a,5-tetrahydro-1H-cyclopropa[3,4]cyclopenta[1,2-c]pyrazol-1-yl)acetamido)-2-(3,5-difluorophenyl)ethyl)pyridin-3-yl)-2-fluorobenzamide] | 96 | 19.5 |
| Cn1nc(NS(C)(=O)=O)c2c(Cl)ccc(-c3cc(N)cnc3[C@H](Cc3cc(F)cc(F)c3)NC(=O)Cn3nc(C(F)(F)F)c4c3C(F)(F)[C@@H]3C[C@H]43)c21 [Compound 52, N—((S)-1-(5-amino-3-(4-chloro-1-methyl-3-(methylsulfonamido)-1H-indazol-7-yl)pyridin-2-yl)-2-(3,5-difluorophenyl)ethyl)-2-((3bS,4aR)-5,5-difluoro-3-(trifluoromethyl)-3b,4,4a,5-tetrahydro-1H-cyclopropa[3,4]cyclopenta[1,2-c]pyrazol-1-yl)acetamide] | 104 | 21.5 |
| Cn1nc(NS(C)(=O)=O)c2cccc(-c3ccc(N4CC(N)CC4=O)nc3[C@H](Cc3cc(F)cc(F)c3)NC(=O)Cn3nc(C(F)(F)F)c4c3C(F)(F)[C@@H]3C[C@H]43)c21 (stereo partly drawn) [Compound 43B, N-((1S)-1-(6-(4-amino-2-oxopyrrolidin-1-yl)-3-(1-methyl-3-(methylsulfonamido)-1H-indazol-7-yl)pyridin-2-yl)-2-(3,5-difluorophenyl)ethyl)-2-((3bS,4aR)-5,5-difluoro-3-(trifluoromethyl)-3b,4,4a,5-tetrahydro-1H-cyclopropa[3,4]cyclopenta[1,2-c]pyrazol-1-yl)acetamide] | 83 | 16.9 |
| NC(=O)c1cc(-c2cc(N3C(=O)c4ccccc4C3=O)cnc2[C@H](Cc2cc(F)cc(F)c2)NC(=O)Cn2nc(C(F)F)c3c2C(F)(F)CCC3(F)F)ccc1F [Compound 32, (S)-5-(2-(1-(2-(3-(difluoromethyl)-4,4,7,7-tetrafluoro-4,5,6,7-tetrahydro-1H-indazol-1-yl)acetamido)-2-(3,5-difluorophenyl)ethyl)-5-(1,3-dioxoisoindolin-2-yl)pyridin-3-yl)-2-fluorobenzamide] | 37 | > 53.2 |
| CN(CCO)c1ccc(-c2ccc(Cl)c3c(NS(C)(=O)=O)nn(C)c23)c([C@H](Cc2cc(F)cc(F)c2)NC(=O)Cn2nc(C(F)F)c3c2C(F)(F)[C@@H]2C[C@H]32)n1 [Compound 57G, N—((S)-1-(3-(4-chloro-1-methyl-3-(methylsulfonamido)-1H-indazol-7-yl)-6-((2-hydroxyethyl)(methyl)amino)pyridin-2-yl)-2-(3,5-difluorophenyl)ethyl)-2-((3bS,4aR)-3-(difluoromethyl)-5,5-difluoro-3b,4,4a,5-tetrahydro-1H-cyclopropa[3,4]cyclopenta[1,2-c]pyrazol-1-yl)acetamide] | 81 | 29.5 |
